Experimental findings from PMC8591507, “Progesterone receptor membrane component 1 (PGRMC1) binds and stabilizes cytochromes P450 through a heme-independent mechanism” (The Journal of Biological Chemistry, 2021) are described below.

What is called Kd is the free concentration of one partner at which half of the binding sites on the other are occupied at equilibrium, for simple one-to-one binding. A higher Kd goes with lower affinity.

For test [1], the target named is T1, Y113F PGRMC1 (progesterone receptor membrane component 1) (Homo sapiens, UniProt O00264, Y113F).
T1 construct: recombinant truncated human PGRMC1 (aa 43–195), His tag removed by thrombin
As to the kind of experiment: spectrophotometric hemin titration (A394), Hill fit. The format is binding.

Test [2] has as its target T2, PGRMC1 (progesterone receptor membrane component 1) (Homo sapiens, UniProt O00264).
T2 construct: recombinant truncated human PGRMC1 (aa 43–195), His tag removed by thrombin
Described as above. In kind it is binding.

T2 sequence (O00264 43-195): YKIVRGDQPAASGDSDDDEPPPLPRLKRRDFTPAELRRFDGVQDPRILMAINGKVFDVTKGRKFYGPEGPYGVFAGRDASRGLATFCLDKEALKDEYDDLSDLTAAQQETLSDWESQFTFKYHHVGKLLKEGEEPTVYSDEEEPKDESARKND
T1 sequence (O00264 43-195 Y113F): as the sequence (O00264 43-195) above, with Y71F counted along it

Regarding `C=CC1=C(C)C2=Cc3c(C=C)c(C)c4[n]3[Fe]([Cl])[n]3c(c(C)c(CCC(=O)O)c3=CC3=NC(=C4)C(C)=C3CCC(=O)O)=CC1=N2` [hemin], the dissociation constant (Kd) in test [1] worked out at 4.7 ± 0.42 µM; in test [2], 4.9 ± 0.33 µM.
